In US20240024273A1, “TOPICAL ADMINISTRATION OF 2-(DIETHYLAMINO)ETHYL 2-(4-ISOBUTYLPHENYL)PROPRIONATE FOR TREATMENT OF DISEASES” (TECHFIELDS PHARMA CO., LTD., priority 2020, published 2024):

Test system: Subjects with Osteoarthritis of the Knee
Experiment: Second Phase 2 study: safety (treatment-emergent adverse events)
Assay type: in vivo, human
Parameters: Serious Treatment-emergent Adverse Event: SAE Criteria: scale not given here
Excerpt: Safety assessments will be performed at each visit and will include assessment of AEs, vital signs (blood pressure, pulse rate, and oral temperature), clinical laboratories, physical examination, skin irritation, and electrocardiograms (ECGs) as indicated in the study flow chart, Table 47.
Safety assessments will include AEs, vital signs (blood pressures, pulse rate, and oral temperature), clinical laboratories, physical examination, skin irritation, and ECGs at various time points during the study as indicated in the study flow chart.
Adverse events of interest include: local skin reactions around the treated knee(s), upper stomach pain, GI bleeding, serious cardiovascular side effects (e.g., thrombotic events, myocardial infarction, or stroke), jaundice, elevated liver function tests, and nausea.
Safety analyses will be conducted on the SAS. Safety parameters will be listed and summarized using standard descriptive statistics, as appropriate. No formal statistical analyses are planned.

[1] = 4.375 mg, BID, subject 105/07/F64, abdominal aortic aneurysm
[2] = 8.75 mg, BID, subject 279/08/M66, Transient Ischemic Attack

CCN(CC)CCOC(=O)C(C)c1ccc(CC(C)C)cc1 (stereo not drawn) [2-(diethylamino)ethyl 2-(4-isobutylphenyl)propionate]
Serious Treatment-emergent Adverse Event (4.375 mg, BID, subject 105/07/F64, [aortic aneurysm] (Blood and Lymphatic System Disorders)): abdominal aortic aneurysm
Serious Treatment-emergent Adverse Event: Relationship to Study Drug [1]: Unrelated
Serious Treatment-emergent Adverse Event: SAE Criteria [1]: 1
Serious Treatment-emergent Adverse Event: Severity [1]: Severe
Serious Treatment-emergent Adverse Event: Outcome (4.375 mg, BID, subject 105/07/F64, abdominal aortic aneurysm, cell wraps: Results / in / Death): Death
GI disorders incidence rate (4.375 mg/knee BID): 4.2%
incidence rate of AEs possibly, probably, or definitely related to study drug (4.375 mg/knee BID): 33.8%
infections and infestations incidence rate (4.375 mg/knee BID): 32.4%
positive fecal occult blood test incidence rate (4.375 mg/knee BID): 7.0%
Abdominal Pain Upper: number of adverse events (4.375 mg/knee, BID, N = 71): 1
Abdominal Pain Upper: percentage of subjects with adverse events (4.375 mg/knee, BID, N = 71): 1.4%
Abdominal Pain Upper: subjects with adverse events (4.375 mg/knee, BID, N = 71): 1
Administration Site Conditions: number of adverse events (4.375 mg/knee, BID, N = 71): 1
Administration Site Conditions: percentage of subjects with adverse events (4.375 mg/knee, BID, N = 71): 1.4%
Administration Site Conditions: subjects with adverse events (4.375 mg/knee, BID, N = 71): 1
Alanine Aminotransferase Increased: number of adverse events (4.375 mg/knee, BID, N = 71): 1
Alanine Aminotransferase Increased: percentage of subjects with adverse events (4.375 mg/knee, BID, N = 71): 1.4%
Alanine Aminotransferase Increased: subjects with adverse events (4.375 mg/knee, BID, N = 71): 1
Application Site Irritation: number of adverse events (4.375 mg/knee, BID, N = 71): 1
Application Site Irritation: percentage of subjects with adverse events (4.375 mg/knee, BID, N = 71): 1.4%
Application Site Irritation: subjects with adverse events (4.375 mg/knee, BID, N = 71): 1
Aspartate Aminotransferase Increased: number of adverse events (4.375 mg/knee, BID, N = 71): 3
Aspartate Aminotransferase Increased: percentage of subjects with adverse events (4.375 mg/knee, BID, N = 71): 4.2%
Aspartate Aminotransferase Increased: subjects with adverse events (4.375 mg/knee, BID, N = 71): 3
Back Pain: number of adverse events (4.375 mg/knee, BID, N = 71): 1(%)[1]
Back Pain: subjects with adverse events, number (percentage) (4.375 mg/knee, BID, N = 71): 1(%)[1]
Blood Alkaline Phosphatase Increased: number of adverse events (4.375 mg/knee, BID, N = 71): 1
Blood Alkaline Phosphatase Increased: percentage of subjects with adverse events (4.375 mg/knee, BID, N = 71): 1.4%
Blood Alkaline Phosphatase Increased: subjects with adverse events (4.375 mg/knee, BID, N = 71): 1
Blood Bilirubin Increased: number of adverse events (4.375 mg/knee, BID, N = 71): 1
Blood Bilirubin Increased: percentage of subjects with adverse events (4.375 mg/knee, BID, N = 71): 1.4%
Blood Bilirubin Increased: subjects with adverse events (4.375 mg/knee, BID, N = 71): 1
Contusion: number of adverse events (4.375 mg/knee, BID, N = 71): 2
Contusion: subjects with adverse events, number (percentage) (4.375 mg/knee, BID, N = 71): 2(2.8%)
Cough: number of adverse events (4.375 mg/knee, BID, N = 71): 1
Cough: subjects with adverse events, number (percentage) (4.375 mg/knee, BID, N = 71): 1(1.4%)
Ear Pain: number of adverse events (4.375 mg/knee, BID, N = 71): 1(%)[1]
Ear Pain: subjects with adverse events (4.375 mg/knee, BID, N = 71): 1(%)[1]
Ear and Labyrinth Disorders: number of adverse events (4.375 mg/knee, BID, N = 71): 1
Ear and Labyrinth Disorders: percentage of subjects with adverse events (4.375 mg/knee, BID, N = 71): 1.4%
Ear and Labyrinth Disorders: subjects with adverse events (4.375 mg/knee, BID, N = 71): 1
Fall: number of adverse events (4.375 mg/knee, BID, N = 71): 1
Fall: subjects with adverse events, number (percentage) (4.375 mg/knee, BID, N = 71): 1(1.4%)
Frequency of Positive Fecal Occult Blood Test (4.375 mg/knee, BID, N = 71): 6
Gamma-Glutamyltransferase Increased: number of adverse events (4.375 mg/knee, BID, N = 71): 2
Gamma-Glutamyltransferase Increased: percentage of subjects with adverse events (4.375 mg/knee, BID, N = 71): 2.8%
Gamma-Glutamyltransferase Increased: subjects with adverse events (4.375 mg/knee, BID, N = 71): 2
Gastrointestinal Disorders: number of adverse events (4.375 mg/knee, BID, N = 71): 3
Gastrointestinal Disorders: percentage of subjects with adverse events (4.375 mg/knee, BID, N = 71): 4.2%
Gastrointestinal Disorders: subjects with adverse events (4.375 mg/knee, BID, N = 71): 3
Headache: number of adverse events (4.375 mg/knee, BID, N = 71): 1
Headache: subjects with adverse events, number (percentage) (4.375 mg/knee, BID, N = 71): 1(1.4%)
Hypercholesterolaemia: number of adverse events (4.375 mg/knee, BID, N = 71): 1
Hypercholesterolaemia: percentage of subjects with adverse events (4.375 mg/knee, BID, N = 71): 1.4%
Hypercholesterolaemia: subjects with adverse events (4.375 mg/knee, BID, N = 71): 1
Hypertension: number of adverse events (4.375 mg/knee, BID, N = 71): 1
Hypertension: percentage of subjects with adverse events (4.375 mg/knee, BID, N = 71): 1.4%
Hypertension: subjects with adverse events (4.375 mg/knee, BID, N = 71): 1
Hypertriglyceridemia: number of adverse events (4.375 mg/knee, BID, N = 71): 6
Hypertriglyceridemia: percentage of subjects with adverse events (4.375 mg/knee, BID, N = 71): 7.0%
Hypertriglyceridemia: subjects with adverse events (4.375 mg/knee, BID, N = 71): 5
Infections and Infestations: number of adverse events (4.375 mg/knee, BID, N = 71): 24
Infections and Infestations: subjects with adverse events, number (percentage) (4.375 mg/knee, BID, N = 71): 23(32.4%)
Influenza: number of adverse events (4.375 mg/knee, BID, N = 71): 3
Injury, Poisoning and Procedural Complications: number of adverse events (4.375 mg/knee, BID, N = 71): 3
Investigations: number of adverse events (4.375 mg/knee, BID, N = 71): 11
Investigations: percentage of subjects with adverse events (4.375 mg/knee, BID, N = 71): 15.5%
Investigations: subjects with adverse events (4.375 mg/knee, BID, N = 71): 11
Metabolism and Nutrition Disorders: number of adverse events (4.375 mg/knee, BID, N = 71): 7
Metabolism and Nutrition Disorders: percentage of subjects with adverse events (4.375 mg/knee, BID, N = 71): 8.5%
Metabolism and Nutrition Disorders: subjects with adverse events (4.375 mg/knee, BID, N = 71): 6
Musculoskeletal Pain: number of adverse events (4.375 mg/knee, BID, N = 71): 1(%)[1]
Musculoskeletal Pain: subjects with adverse events, number (percentage) (4.375 mg/knee, BID, N = 71): 1(%)[1]
Musculoskeletal and Connective Tissue Disorders, Overall Total: number of adverse events (4.375 mg/knee, BID, N = 71): 3
Neck Pain: number of adverse events (4.375 mg/knee, BID, N = 71): 1(%)[1]
Neck Pain: subjects with adverse events, number (percentage) (4.375 mg/knee, BID, N = 71): 1(%)[1]
Nervous System Disorders: number of adverse events (4.375 mg/knee, BID, N = 71): 1
Nervous System Disorders: subjects with adverse events, number (percentage) (4.375 mg/knee, BID, N = 71): 1(1.4%)
Oropharyngeal Pain: number of adverse events (4.375 mg/knee, BID, N = 71): 2
Oropharyngeal Pain: subjects with adverse events, number (percentage) (4.375 mg/knee, BID, N = 71): 2(1.4%)
Rash: number of adverse events (4.375 mg/knee, BID, N = 71): 1
Rash: percentage of subjects with adverse events (4.375 mg/knee, BID, N = 71): 1.4%
Rash: subjects with adverse events (4.375 mg/knee, BID, N = 71): 1
Respiratory, Thoracic and Mediastinal Disorders: number of adverse events (4.375 mg/knee, BID, N = 71): 6
Respiratory, Thoracic and Mediastinal Disorders: subjects with adverse events, number (percentage) (4.375 mg/knee, BID, N = 71): 6(8.5%)
Rhinorrhoea: number of adverse events (4.375 mg/knee, BID, N = 71): 1
Rhinorrhoea: subjects with adverse events, number (percentage) (4.375 mg/knee, BID, N = 71): 1(1.4%)
Skin Irritation: number of adverse events (4.375 mg/knee, BID, N = 71): 1
Skin Irritation: percentage of subjects with adverse events (4.375 mg/knee, BID, N = 71): 1.4%
Skin Irritation: subjects with adverse events (4.375 mg/knee, BID, N = 71): 1
Skin and Subcutaneous Tissue Disorders: number of adverse events (4.375 mg/knee, BID, N = 71): 2
Skin and Subcutaneous Tissue Disorders: percentage of subjects with adverse events (4.375 mg/knee, BID, N = 71): 2.8%
Skin and Subcutaneous Tissue Disorders: subjects with adverse events (4.375 mg/knee, BID, N = 71): 2
Subjects with Positive Fecal Occult Blood Test (4.375 mg/knee, BID, N = 71): 5
Subjects with Positive Fecal Occult Blood Test, percentage (4.375 mg/knee, BID, N = 71): 7.0%
Throat Irritation: number of adverse events (4.375 mg/knee, BID, N = 71): 2
Throat Irritation: subjects with adverse events, number (percentage) (4.375 mg/knee, BID, N = 71): 2(2.8%)
Toothache: number of adverse events (4.375 mg/knee, BID, N = 71): 2
Toothache: percentage of subjects with adverse events (4.375 mg/knee, BID, N = 71): 2.8%
Toothache: subjects with adverse events (4.375 mg/knee, BID, N = 71): 2
Transaminases Increased: number of adverse events (4.375 mg/knee, BID, N = 71): 1
Transaminases Increased: percentage of subjects with adverse events (4.375 mg/knee, BID, N = 71): 1.4%
Transaminases Increased: subjects with adverse events (4.375 mg/knee, BID, N = 71): 1
Upper Respiratory Tract Infection: number of adverse events (4.375 mg/knee, BID, N = 71): 12
Urinary Tract Infection: number of adverse events (4.375 mg/knee, BID, N = 71): 8
Urinary Tract Infection: subjects with adverse events, number (percentage) (4.375 mg/knee, BID, N = 71): 8(11.3%)
Vascular Disorders: number of adverse events (4.375 mg/knee, BID, N = 71): 1
Vascular Disorders: percentage of subjects with adverse events (4.375 mg/knee, BID, N = 71): 1.4%
Vascular Disorders: subjects with adverse events (4.375 mg/knee, BID, N = 71): 1
White Blood Cell Count Decreased: number of adverse events (4.375 mg/knee, BID, N = 71): 2
White Blood Cell Count Decreased: percentage of subjects with adverse events (4.375 mg/knee, BID, N = 71): 2.8%
White Blood Cell Count Decreased: subjects with adverse events (4.375 mg/knee, BID, N = 71): 2
Serious Treatment-emergent Adverse Event: Duration [2]: < 11 days
Serious Treatment-emergent Adverse Event: SAE Criteria [2]: 6
Serious Treatment-emergent Adverse Event: Severity [2]: Severe
Serious Treatment-emergent Adverse Event: Relationship to Study Drug (8.75 mg, BID, subject 279/08/M66, Transient Ischemic Attack, cell wraps: Possible / unrelated): Possible
Serious Treatment-emergent Adverse Event: Outcome (8.75 mg, BID, subject 279/08/M66, Transient Ischemic Attack, cell wraps: Recovered/ resolved): Recovered/
Serious Treatment-emergent Adverse Event (8.75 mg, BID, subject 279/08/M66, [Thrombosis] (Vascular Disorders)): Transient Ischemic Attack
GI disorders incidence rate (8.75 mg/knee (BID)): 14.3%
incidence rate of AEs possibly, probably, or definitely related to study drug (8.75 mg/knee (BID)): 41.4%
infections and infestations incidence rate (8.75 mg/knee (BID)): 28.6%
positive fecal occult blood test incidence rate (8.75 mg/knee (BID)): 7.1%
Abdominal Discomfort: number of adverse events (8.75 mg/knee, BID, N = 70): 4
